Data on 39 molecules can be found in ChEMBL document CHEMBL4152312, “Identification of fused pyrimidines as interleukin 17 secretion inhibitors” (Eur J Med Chem, 2018).

For experiment [1], the system named is PBMC. Description: Inhibition of IL-17 secretion in anti-human CD3 antibody/anti-human CD28 antibody/IL23-stimulated human PBMC after 48 hrs by ELISA. The format is functional, cell-based. A general note: In an ELISA, binding on a coated surface is turned into a signal by an enzyme label.
Experiment [2] has as its system PBMC. The experiment is described as follows: Cytotoxicity against human PBMC assessed as induction of cell death by cell Titer-Glo assay. The format is cell-based. A general note: ATP-based viability assays read luminescence as a measure of living cells.
Experiment [3] relates to PBMC. The experiment is described as follows: Inhibition of IL-5 secretion in anti-human CD3 antibody/anti-human CD28 antibody/IL23-stimulated human PBMC after 48 hrs by ELISA. The format is functional, cell-based.

The structures appear in SMILES notation.

For the molecule `CN(C)CCn1cc(-c2ccc(CO)cc2)c2c(N[C@H](CO)c3ccccc3)ncnc21`, the IC50 (usually the concentration needed to halve the response being measured) in experiment [1] was more than 10 µM.

Consider `COc1ccccc1-c1cc2c(N[C@H](C)c3ccccn3)ncnc2s1`, for which the IC50 in experiment [1] was more than 10 µM.

For `NC(=O)CC(Nc1ncnc2sc(-c3ccc(CO)cc3)cc12)c1ccccc1` (centres undefined), the IC50 in experiment [2] was more than 10 µM; in experiment [1] it was 3.3 µM.

With `COc1cc(CO)ccc1-c1cc2c(Nc3ccc(OCc4cccc(F)c4)c(Cl)c3)ncnc2s1`, the values for the IC50 in experiment [3], in experiment [2] and in experiment [1] were more than 30 µM, 28 µM and 9 µM, respectively.

`Oc1cccc(-c2cc3c(OC(c4ccccc4)C(F)(F)F)ncnc3s2)c1` (centres undefined) yielded an IC50 in experiment [1] of more than 10 µM.

Take `COc1cc(CO)ccc1-c1cc2c(N[C@H](CO)c3ccccc3)ncnc2[nH]1`: the IC50 in experiment [3] was 2.3 to 3.5 µM; in experiment [2] it was more than 30 µM; in experiment [1], 3.1 to 3.2 µM.

Turning to `Cn1cc(-c2cccc(O)c2)c2c(N[C@H](CO)c3ccccc3)ncnc21`, the figures for the IC50 in experiment [2] and in experiment [1] were more than 10 µM and 2.8 µM, respectively.

On to `CC(Nc1ncnc2[nH]c(-c3ccc(CO)cc3)cc12)C12CC3CC(CC(C3)C1)C2` (centres undefined), for which the IC50 was more than 10 µM in experiment [2] and 5 µM in experiment [1].

For the molecule `COc1ccc(-c2cc3c(N[C@H](C)C4CCCCC4)ncnc3s2)cc1`, the IC50 in experiment [1] is more than 10 µM.

With `COc1cc(CO)ccc1-c1cc2c(N[C@H](CO)c3ccccc3)ncnc2s1`, the values for the IC50 in experiment [3], in experiment [2] and in experiment [1] were 14 µM, more than 30 µM and 4.6 µM, respectively.

As to `CN(C)CCn1cc(-c2ccc(O)cc2)c2c(N[C@H](CO)c3ccccc3)ncnc21`, in experiment [1], the IC50 is more than 10 µM.

For `Cc1cc(C)c(-c2cc3c(N[C@H](C)c4ccccc4)ncnc3s2)c(C)c1`, in experiment [1], the IC50 was more than 10 µM.

With `Oc1ccc(-c2cc3c(OC(c4ccccc4)C(F)(F)F)ncnc3s2)cc1` (centres undefined), the IC50 in experiment [1] was more than 10 µM.

Regarding `COc1cc(CO)ccc1-c1cc2c(N[C@H](CO)c3ccc(F)cc3)ncnc2[nH]1`, the IC50 in experiment [2] was more than 10 µM; in experiment [1] it was 3.1 µM.

With `COc1cccc(OC)c1-c1cc2c(N[C@H](CO)c3ccccc3)ncnc2s1`, the IC50 in experiment [2] was more than 30 µM; in experiment [1], 7 µM.

Consider `COc1ccc(-c2cc3c(N[C@H](CCO)c4ccccc4)ncnc3s2)cc1`, for which, in experiment [1], the IC50 is more than 10 µM.

Regarding `C[C@@H](Nc1ncnc2[nH]cc(-c3ccc(F)c(CNCCN(C)C)c3)c12)c1ccccc1`, the IC50 in experiment [2] was more than 10 µM; in experiment [1], 5 µM.

In experiment [1], `Oc1ccccc1-c1cc2c(OC(c3ccccc3)C(F)(F)F)ncnc2s1` (centres undefined) returned an IC50 of more than 10 µM.

`Fc1ccc(Nc2ncnc3sc(-c4ccc(Br)cc4)cc23)cc1Cl`: in experiment [1], the IC50 was more than 10 µM.

For the molecule `C[C@@H](Nc1ncnc2[nH]cc(-c3ccc(F)c(CO)c3)c12)c1ccccc1`, the IC50 in experiment [2] is more than 10 µM; in experiment [1] it was 3.1 µM.

As to `CC(CO)Nc1ncnc2c1c(-c1cccc(O)c1)cn2CCN(C)C` (single isomer, unassigned), the IC50 in experiment [1] is more than 10 µM.

As for `COc1ccc(-c2cc3c(NC(CC(N)=O)c4ccccc4)ncnc3s2)cc1` (centres undefined), the results for the IC50 in experiment [3], in experiment [2] and in experiment [1] were 7.6 to 8 µM, more than 30 µM and 4 µM, respectively.

In turn, `C=Cc1ccc(-c2cc3c(N[C@H](C)c4ccccc4)ncnc3s2)cc1` registered an IC50 in experiment [1] of more than 10 µM.

Molecule `Fc1ccc(-c2cc3c(Nc4cccc(OCc5ccccc5)c4)ncnc3[nH]2)cc1` came in with an IC50 in experiment [1] of more than 10 µM.

In experiment [1], `OCc1ccc(-c2cc3c(Nc4cccc(OCc5ccccc5)c4)ncnc3s2)cc1` had an IC50 of more than 10 µM.

With `CS(=O)(=O)CCNCc1ccc(-c2ccc3ncnc(Nc4ccc(OCc5cccc(F)c5)c(Cl)c4)c3c2)o1` [LAPATINIB], the IC50 in experiment [2] was 28 µM.

Take `COc1cc(F)ccc1-c1cc2c(N[C@H](CO)c3ccccc3)ncnc2[nH]1`: the IC50 was 1.1 µM in experiment [3], more than 10 µM in experiment [2] and 4.1 to 4.3 µM in experiment [1].

On to `CN(C)CCn1cc(-c2cccc(O)c2)c2c(N[C@H](CO)c3ccccc3)ncnc21`, for which, in experiment [1], the IC50 was more than 10 µM.

In experiment [1], `Oc1cccc(-c2c[nH]c3ncnc(Nc4ccc(OCc5cccc(F)c5)c(Cl)c4)c23)c1` came in with a half-inhibitory concentration (IC50) of more than 10 µM.

`COc1cccc(-c2cc3c(N[C@H](C)c4ccccc4)ncnc3s2)c1OC` registered an IC50 in experiment [1] of more than 10 µM.

As for `CC(C)c1cc(C(C)C)c(-c2cc3c(N[C@H](C)c4ccccc4)ncnc3s2)c(C(C)C)c1`, the IC50 in experiment [1] was more than 10 µM.

Take `Fc1ccc(-c2cc3c(Nc4cccc(OCc5ccccc5)c4)ncnc3s2)cc1`: the IC50 in experiment [1] was more than 10 µM.

As for `OCc1ccc(-c2cc3c(Nc4cccc(OCc5ccccc5)c4)ncnc3[nH]2)cc1`, the IC50 was more than 10 µM in experiment [2] and 2.2 µM in experiment [1].

With `COc1ccc(-c2cc3c(N[C@@H](C)CO)ncnc3s2)cc1`, the IC50 in experiment [1] is more than 10 µM.

For the molecule `COc1cccc(OC)c1-c1cc2c(N[C@H](C)c3ccccc3)ncnc2[nH]1`, the IC50 is 2.5 µM in experiment [3], more than 10 µM in experiment [2] and 4.2 µM in experiment [1].

For the molecule `OCc1ccc(-c2cc3c(Nc4ccc(OCc5cccc(F)c5)c(Cl)c4)ncnc3[nH]2)cc1`, the IC50 in experiment [1] was more than 10 µM.

`C[C@@H](Nc1ncnc2sc(-c3ccccc3)cc12)c1ccccc1` returned an IC50 in experiment [1] of more than 10 µM.

For `COc1ccc(-c2cc3c(N[C@H](CO)c4ccccc4)ncnc3s2)cc1`, the IC50 in experiment [1] was more than 10 µM.

In experiment [1], `CN(C)CCn1cc(-c2ccc(F)c(CO)c2)c2c(N[C@H](CO)c3ccccc3)ncnc21` gave an IC50 of more than 10 µM.
